Results: patent US20220249596A1, “PIC1 PEPTIDE COMPOSITIONS AND METHODS OF USE THEREOF FOR TREATMENT OF HYPOXIC ISCHEMIC ENCEPHALOPATHY” (REALTA HOLDINGS, LLC, priority 2019, published 2022)
No end group written: not given here.

Columns and labels:
Type in all cases: in vivo, rat
C1q [1] = assay: Systemic C1q level in plasma, fluorescent immunoassay; conditions: 8, 12 and 24 hours after initial insult, P<0.05
Description: (§1) The local and systemic effects of NT, HT and PIC1 treatment on the complement cascade were measured. CNS C1q levels and systemic C1q and C5a levels were measured using a fluorescent immunoassay.
(§2) Systemic C1q and C5a levels were measured as follows. 100 μl of 1:5 plasma in 1×PBS was added to the wells of a plate described above and incubated overnight at 4° C. The plates were washed 3 times with PBST and blocked with NDS or NGS for one hour. Samples were probed with either 1:50 goat anti-human C1q (Complement Technology) in NDS or 1:200 mouse anti-human C5a (Human Complement Component C5a DuoSet ELISA, R&D Systems, Inc., Minneapolis, Minn.) in NGS for one hour at RT. The wells were washed and 1:500 donkey anti-goat 488 (Life Technologies) in NDS or 1:500 goat anti-mouse AF 568 (Life Technologies) in NGS was added, and incubated for one hour at RT. The wells were washed and the plate read using a Synergy HT (BioTek). Systemic C3a levels in plasma (1:20 dilution) were measured using a standard ELISA, according to the manufacturer's instructions (Rat C3a ELISA Kit, TSZ ELISA, Waltham, Mass.).

C3a = assay: Systemic C3a level in plasma, ELISA; conditions: 8, 12 and 24 hours after initial insult, P<0.05
Description: as §2

C1q [2] = assay: CNS C1q level in whole cell brain lysate, fluorescent immunoassay; conditions: 8, 12 and 24 hours after initial insult, P<0.05
Description: as §1
CNS C1q levels were measured as follows. 150 μg of whole cell brain lysate in 1× PBS was added to the wells of a Costar high binding, black flat bottom 96-well polystyrene microplate (Corning, Steuben County, NY) and incubated overnight at 4° C. The plates were washed 3 times with 1× PBS-0.1% Tween 20 (PBST) and blocked with 10% normal donkey serum (NDS) for one hour. A 1:50 dilution of goat anti-human C1q (Complement Technology, Inc., Tyler, Tex.) in NDS was added into the wells and incubated for one hour at room temperature (RT). After washing, a 1:500 dilution of donkey anti-goat Alexa Fluor (AF) 488 (Life Technologies, Grand Island, N.Y.) in NDS was added, and incubated for one hour at RT. Wells were then washed and blocked with 10% normal goat serum (NGS) for one hour at RT. A 1:250 dilution of mouse anti-GAPDG (Abcam, Cambridge, UK) in NGS was added into the wells and incubated for one hour at RT. Wells were washed and a 1:500 dilution of goat anti-mouse AF 568 (Life Technologies, Grand Island, N.Y.) in NGS was added to incubate for one hour at RT. The wells were washed and the plate read using a Synergy HT (BioTek, Winooski, Vt.).

[3] = Barnes maze, spatial learning and memory
Description: Spatial learning and memory were evaluated by measuring navigational ability of rats in a Barnes maze 8 weeks after initial injury. The Barnes maze tests memory across test sessions or trials and is more closely related to long-term memory. The test was performed using a Plexiglas maze 122 cm in diameter, with 20 equidistant holes (10.5 cm diameter) spaced every […], and centered 20 cm from the outer perimeter. An escape box (8 cm in depth) was placed under one of the holes. The position of the escape box was varied randomly from rat to rat, but kept constant for a given rat throughout testing. A floodlight was placed over the maze to serve as an aversive stimulus.
Prior to testing, the rats underwent habituation sessions once a day for 5 consecutive days. In each session, the rats were placed in a holding box in the middle of the maze and allowed to get acclimated for 60 seconds. The holding box was then lifted up from the rats so that the rats were allowed to explore. The test was over when either the rat found the burrowing hole and burrowed for 10 seconds or the 5-minute time limit was reached. […] On the 14th day after the habituation sessions, the rats were tested to evaluate memory retention. Latency to investigate any hole, escape latency, and number of errors during the test trials were analyzed by two-way ANOVA, followed by Bonferroni's post hoc comparison matrix. The same measurements recorded during the memory retention test were analyzed by Student's t-test. Significance was considered at p<0.05.

[4] = Novel object recognition test; conditions: 8 weeks after HIE, versus HT and NT animals, P<0.05
Description: The novel object recognition test was performed at 8 weeks after HIE to test cognitive function by evaluating the differences in the exploration time of novel and familiar objects. The novel object recognition task tests for short-term, intermediate and long-term memory without the need for external motivation, reward, or punishment. Results on the test are influenced by both hippocampal and cortical injury. The test is based on the concept that when animals are exposed to a familiar and a novel object, they spend more time exploring the novel object. It is thought that the recognition of novelty requires more cognitive skills from the subject.
Rats were trained for two days prior to novel object testing. During the training sessions, the rat was allowed to explore the testing chamber, a polycarbonate box (40×40 cm) with two identical objects for three minutes. On testing day, one of the familiar objects was replaced with a novel object, made with the same material but a different shape, and allowed to explore for three minutes. Video recordings of the interactions were reviewed by blinded investigators. Object exploration was defined as the rat directing its nose toward the object at a distance of less than 2 cm. The DINOR was calculated as ((time with novel object−time with familiar object))/(total time spent with objects).

In the case of “IALILEPICCQERAA-dPEG24 (cysteine pairing not given here) [PIC1]”, the “C1q levels in plasma, NT animals relative to PIC1-treated animals” value (C1q [1]) is reported as “significantly higher”, the “C3a levels in plasma, NT animals relative to PIC1-treated animals” value (C3a) is reported as “significantly higher” and the “whole brain C1q levels, NT animals relative to PIC1-treated animals” value (C1q [2]) is reported as “significantly higher”. For the same substance, the “Barnes maze: latency in finding the escape hole” value ([3]; 8 weeks after injury, versus NT and HT animals) was “significantly shorter”, the “Barnes maze: seeking strategy” value ([3]; direct versus random or serial strategy) was “more likely to use a direct strategy” and the “Barnes maze: errors in finding the escape hole” value ([3]; versus HT-treated animals) was “significantly fewer”. For the same substance, the “Barnes maze: errors in finding the escape hole” value ([3]; versus NT animals, P=0.06, not statistically significant) was “trended towards fewer errors” and the “novel object recognition: proportion of time exploring the novel object” value [4] was “significantly higher proportion of time”.
